{"source": "patent US11326165B1", "about": "“Methods and compositions for modulating splicing” (SKYHAWK THERAPEUTICS, INC., priority 2017, dated 2022)", "key": {"A673 cells": {"system": "A673 cells", "assay": "Cell viability and proliferation, A673 cells (crystal violet)", "assay_type": "cell-based", "conditions": "cell proliferation IC50 in NHDF cells over A673 cells, 72 h", "procedure": "Small molecule splicing modulators were tested in a dose-response assay using A673 cells and NHDF cells.\nA673 cells or NHDF cells were first plated in 96-well plastic tissue culture plates (10,000 cells per well). The cells were treated with vehicle alone (DMSO), or increasing concentrations of SMSM compounds for 72 h. Following treatment, cell proliferation was determined using a crystal violet assay. The relative cell proliferation at each concentration was determined."}, "[1]": {"assay": "Maximum tolerable dose study (survival, body weight)", "assay_type": "in vivo", "conditions": "mice", "procedure": "Survival of mice after administration of SMSMs after 10 or 11 days was assessed.\nTolerance of the drug treatments was determined by measuring the weight of the mice during the period of drug administration. Body weight was measured prior to tumor inoculation and prior to the treatment administration and then daily. The changes in the final weight of the mice for the SMSM treatments were determined."}, "A673 xenografts": {"system": "A673 xenografts", "assay": "A673 xenografts in nude mice, tumor growth inhibition", "assay_type": "in vivo", "conditions": "A673 xenograft (FIGS. 20A-B)", "procedure": "Dose range and time course studies comparing anti-neoplastic effects of SMSM−167 and SMSM−151 against vehicle were conducted.\nFemale NCrNu mice were used. Age range of enrolment was 7-10 weeks. A total of 75 animals were for the studies.\nThe A673 tumor cell line was maintained in vitro as a monolayer culture. […] The cells growing in an exponential growth phase were harvested and counted for tumor inoculation.\nEach mouse were inoculated into a right flank with the single cell suspension of 95% viable tumor cells (5×10^6 cells/mouse) in serum-free RPMI 1640 Media for tumor development. Treatments were administered when mean tumor size reached approximately 75 mm^3.\nBefore commencement of treatment, all animals were weighed and assigned to treatment groups using a randomization procedure. Mice were randomized into groups based upon their tumor sizes to ensure that each group had approximately the same mean tumor size and range of tumor size.\nAfter inoculation, the animals were checked daily for morbidity and mortality. At the time of routine monitoring, the animals were checked for any effects of tumor growth on normal behavior such as mobility, food and water consumption, body weight gain/loss, eye/hair matting and any other abnormal effects. Deaths and observed clinical signs were recorded.\nBody weight were measured prior to tumor inoculation and prior to the treatment administration and then daily. Tumor size were measured 2-3 times per week in two dimensions using a caliper, and the volume were expressed in mm^3 using the formula: V=0.5×a×b^2 where a and b are the long and short diameters of the tumor, respectively.\n(§1) Studies were terminated when the tumor size in the vehicle treated group reached 2,000 mm^3. Each mouse was bled at 2 hrs after the last dose and at least 50 μl of plasma were collected from each mouse. All of the collected plasma samples and retainer dosing solutions for each dose level were used for bioanalytical measurements. All tumors were also collected and weighed. One necrosis-free tumor fragment of approximately 50 mg was taken from each tumor and flash-frozen for RNA isolation. The remaining tumor was flash frozen for PK analysis.\n(§2) Studies were performed to assess the effects of in vivo SMSM treatment on glioblastoma, breast, pancreatic, prostate, melanoma, lymphoma and Ewing sarcoma tumors. Studies were also performed to assess the effects of in vivo SMSM treatment on mRNA levels. Immunocompromised nude mice with pre-existing glioblastoma, breast, pancreatic, prostate, melanoma, lymphoma and Ewing sarcoma xenografts were treated with vehicle or SMSMs. Tumor tissues from subcutaneous xenografts were broken into a powder using a BioPulverizer (Biospec Products, Inc.). After SMSM treatment, mRNA was isolated from the xenografts and was analyzed by qRT-PCR.\nas §1, with “Tumor size was measured 2 times per week in two dimensions using a caliper. Studies” for “Studies”, “plasma was” for “plasma were”\nThe effects of in vivo SMSM treatments on pre-existing subcutaneous glioblastoma, breast, pancreatic, prostate, melanoma, lymphoma and Ewing sarcoma xenografts were assessed. For these in vivo experiments, 1×10^6Raji, A375, A673, MDA-MB-231, BxPC-3, PC-3 or U87 (cells re-suspended in 100 μl PBS were subcutaneously injected into the flanks of nude mice. When the tumor reached approximately 100 mm^3 (volume=(¾)(π)(length/2)(width/2)^2), the treatments indicated in the tables below were initiated. […]"}, "A375 xenografts": {"system": "A375 xenografts", "assay": "A375 xenografts in nude mice, tumor growth inhibition", "assay_type": "in vivo", "conditions": "A-375 xenograft (FIGS. 21A-B)", "procedure": "as §2\nas §1, with “Tumor size was measured 2 times per week in two dimensions using a caliper. Studies” for “Studies”, “plasma was” for “plasma were”\nThe effects of in vivo SMSM treatments on pre-existing subcutaneous glioblastoma, breast, pancreatic, prostate, melanoma, lymphoma and Ewing sarcoma xenografts were assessed. For these in vivo experiments, 1×10^6Raji, A375, A673, MDA-MB-231, BxPC-3, PC-3 or U87 (cells re-suspended in 100 μl PBS were subcutaneously injected into the flanks of nude mice. When the tumor reached approximately 100 mm^3 (volume=(¾)(π)(length/2)(width/2)^2), the treatments indicated in the tables below were initiated."}}, "data": [{"molecule": "CN(c1ccc(-c2ccc(-c3cn[nH]c3)cc2O)nn1)[C@H]1C[C@]2(C)CC[C@](C)(C1)N2", "note": "[compound 151, 2-(6-(((1R,3s,5S)-1,5-dimethyl-8-azabicyclo[3.2.1]octan-3-yl)(methyl)ami-no)pyridazin-3-yl)-5-(1H-pyrazol-4-yl)phenol]", "values": [{"measurement": "Ratio NHDF/A673 IC50", "setting": "A673 cells", "result": ">350"}, {"measurement": "Outcome", "setting": "[1]; IP, 1 mg/kg, QDx11", "result": "All survived"}, {"measurement": "Outcome", "setting": "[1]; PO, 10 mg/kg, BIDx11", "result": "All survived"}, {"measurement": "Outcome", "setting": "[1]; PO, 10 mg/kg, QDx11", "result": "All survived"}, {"measurement": "Tumor Growth Inhibition (TGI) (%)", "setting": "A673 xenografts; 10 mg/kg BID p.o., Day 3", "result": 28.03, "unit": "%"}, {"measurement": "Tumor Growth Inhibition (TGI) (%)", "setting": "A673 xenografts; 10 mg/kg BID p.o., Day 6", "result": 34.29, "unit": "%"}, {"measurement": "Tumor Growth Inhibition (TGI) (%)", "setting": "A673 xenografts; 10 mg/kg BID p.o., Day 10", "result": 22.09, "unit": "%"}, {"measurement": "Tumor Growth Inhibition (TGI) (%)", "setting": "A673 xenografts; 10 mg/kg BID p.o., Day 13", "result": 30.12, "unit": "%"}, {"measurement": "Tumor Growth Inhibition (TGI) (%)", "setting": "A673 xenografts; 20 mg/kg BID p.o., Day 3", "result": 37.61, "unit": "%"}, {"measurement": "Tumor Growth Inhibition (TGI) (%)", "setting": "A673 xenografts; 20 mg/kg BID p.o., Day 6", "result": 45.97, "unit": "%"}, {"measurement": "Tumor Growth Inhibition (TGI) (%)", "setting": "A673 xenografts; 20 mg/kg BID p.o., Day 10", "result": 55.24, "unit": "%"}, {"measurement": "Tumor Growth Inhibition (TGI) (%)", "setting": "A673 xenografts; 20 mg/kg BID p.o., Day 13", "result": 71.29, "unit": "%"}, {"measurement": "Tumor Growth Inhibition (TGI) (%)", "setting": "A673 xenografts; 30 mg/kg QD p.o., Day 3", "result": 23.90, "unit": "%"}, {"measurement": "Tumor Growth Inhibition (TGI) (%)", "setting": "A673 xenografts; 30 mg/kg QD p.o., Day 6", "result": 34.28, "unit": "%"}, {"measurement": "Tumor Growth Inhibition (TGI) (%)", "setting": "A673 xenografts; 30 mg/kg QD p.o., Day 10", "result": 17.11, "unit": "%"}, {"measurement": "Tumor Growth Inhibition (TGI) (%)", "setting": "A673 xenografts; 30 mg/kg QD p.o., Day 13", "result": 23.52, "unit": "%"}, {"measurement": "Tumor Growth Inhibition (TGI) (%)", "setting": "A375 xenografts; 3 mg/kg i.p. QD *21 days, D4", "result": 15.21, "unit": "%"}, {"measurement": "Tumor Growth Inhibition (TGI) (%)", "setting": "A375 xenografts; 3 mg/kg i.p. QD *21 days, D7", "result": 18.86, "unit": "%"}, {"measurement": "Tumor Growth Inhibition (TGI) (%)", "setting": "A375 xenografts; 3 mg/kg i.p. QD *21 days, D11", "result": 27.48, "unit": "%"}, {"measurement": "Tumor Growth Inhibition (TGI) (%)", "setting": "A375 xenografts; 3 mg/kg i.p. QD *21 days, D14", "result": 41.30, "unit": "%"}, {"measurement": "Tumor Growth Inhibition (TGI) (%)", "setting": "A375 xenografts; 3 mg/kg i.p. QD *21 days, D18", "result": 62.06, "unit": "%"}, {"measurement": "Tumor Growth Inhibition (TGI) (%)", "setting": "A375 xenografts; 3 mg/kg i.p. QD *21 days, D21", "result": 55.77, "unit": "%"}, {"measurement": "Tumor Growth Inhibition (TGI) (%)", "setting": "A375 xenografts; 10 mg/kg p.o. BID *21 days, D4", "result": 22.49, "unit": "%"}, {"measurement": "Tumor Growth Inhibition (TGI) (%)", "setting": "A375 xenografts; 10 mg/kg p.o. BID *21 days, D7", "result": 28.98, "unit": "%"}, {"measurement": "Tumor Growth Inhibition (TGI) (%)", "setting": "A375 xenografts; 10 mg/kg p.o. BID *21 days, D11", "result": 48.28, "unit": "%"}, {"measurement": "Tumor Growth Inhibition (TGI) (%)", "setting": "A375 xenografts; 10 mg/kg p.o. BID *21 days, D14", "result": 49.06, "unit": "%"}, {"measurement": "Tumor Growth Inhibition (TGI) (%)", "setting": "A375 xenografts; 10 mg/kg p.o. BID *21 days, D18", "result": 58.41, "unit": "%"}, {"measurement": "Tumor Growth Inhibition (TGI) (%)", "setting": "A375 xenografts; 10 mg/kg p.o. BID *21 days, D21", "result": 50.32, "unit": "%"}, {"measurement": "Tumor Growth Inhibition (TGI) (%)", "setting": "A375 xenografts; SMSM-151 group 1.5 mg/kg i.p. BID *21 days, D4", "result": 21.81, "unit": "%"}, {"measurement": "Tumor Growth Inhibition (TGI) (%)", "setting": "A375 xenografts; SMSM-151 group 1.5 mg/kg i.p. BID *21 days, D7", "result": 13.08, "unit": "%"}, {"measurement": "Tumor Growth Inhibition (TGI) (%)", "setting": "A375 xenografts; SMSM-151 group 1.5 mg/kg i.p. BID *21 days, D11", "result": 24.17, "unit": "%"}, {"measurement": "Tumor Growth Inhibition (TGI) (%)", "setting": "A375 xenografts; SMSM-151 group 1.5 mg/kg i.p. BID *21 days, D14", "result": 34.70, "unit": "%"}, {"measurement": "Tumor Growth Inhibition (TGI) (%)", "setting": "A375 xenografts; SMSM-151 group 1.5 mg/kg i.p. BID *21 days, D18", "result": 39.27, "unit": "%"}, {"measurement": "Tumor Growth Inhibition (TGI) (%)", "setting": "A375 xenografts; SMSM-151 group 1.5 mg/kg i.p. BID *21 days, D21", "result": 36.89, "unit": "%"}]}]}
